From ChEMBL document CHEMBL1201862, “PubChem BioAssay data set” (2004)
Calls of active or inactive are those of the source.

Legend:
[1] = molecular target: DNA damage-inducible transcript 3 protein (Mus musculus, UniProt P35639); assay type: functional, Cricetulus griseus
Hexokinase-1 = molecular target: T1, Hexokinase-1 (Homo sapiens, UniProt P19367); experiment: SAR analysis of small molecule inhibitors of hexokinase domain containing I (HKDC1) in the hexokinase 1 selectivity assay. [Related pubchem assays (depositor defined):AID493160, AID493190]; assay type: functional
T1 sequence (P19367 whole entry): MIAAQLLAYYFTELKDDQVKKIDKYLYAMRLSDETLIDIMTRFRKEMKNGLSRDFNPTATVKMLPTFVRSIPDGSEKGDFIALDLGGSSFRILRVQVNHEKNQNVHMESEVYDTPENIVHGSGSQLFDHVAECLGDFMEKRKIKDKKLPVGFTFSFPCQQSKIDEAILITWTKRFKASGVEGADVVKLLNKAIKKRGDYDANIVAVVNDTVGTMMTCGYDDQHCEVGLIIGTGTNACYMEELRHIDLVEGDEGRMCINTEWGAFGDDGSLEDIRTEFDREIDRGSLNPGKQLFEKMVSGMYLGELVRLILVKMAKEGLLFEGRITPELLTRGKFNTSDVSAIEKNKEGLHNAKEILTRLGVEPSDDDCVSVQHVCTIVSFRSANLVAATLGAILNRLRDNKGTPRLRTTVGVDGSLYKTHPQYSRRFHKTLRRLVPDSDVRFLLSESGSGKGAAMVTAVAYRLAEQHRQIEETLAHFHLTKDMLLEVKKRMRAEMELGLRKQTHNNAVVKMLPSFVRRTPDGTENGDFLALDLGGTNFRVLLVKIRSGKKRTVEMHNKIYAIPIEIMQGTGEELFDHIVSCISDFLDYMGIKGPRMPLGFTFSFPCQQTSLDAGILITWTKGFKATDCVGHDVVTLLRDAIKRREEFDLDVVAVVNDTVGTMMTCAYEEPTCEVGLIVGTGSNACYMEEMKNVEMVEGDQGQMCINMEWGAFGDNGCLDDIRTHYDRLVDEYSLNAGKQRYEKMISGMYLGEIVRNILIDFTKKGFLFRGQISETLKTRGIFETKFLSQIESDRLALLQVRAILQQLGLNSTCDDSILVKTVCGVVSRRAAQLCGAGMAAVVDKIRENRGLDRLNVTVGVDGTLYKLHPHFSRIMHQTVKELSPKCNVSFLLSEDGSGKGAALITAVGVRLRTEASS

[2] = ARNT/TACC3 interaction disruptors, potency, confirmation, biochemical, AlphaScreen, cherry-picked samples (AID 651703); assay type: functional, Homo sapiens;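 also: His-tagged ARNT PAS-B domain paired with GST-TACC3 E629A dimer coactivator fragment; potency of inhibitors that break up the complex and lower AlphaScreen signal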
Aminopeptidase N = molecular target: T2, Aminopeptidase N (Plasmodium falciparum FcB1/Columbia, UniProt O96935); experiment: P. falciparum M1AAP inhibitors, biochemical, fluorogenic H-Leu-NHMec substrate, 1536-well (AID 1445); parameters: species or system Plasmodium falciparum 3D7, 3D7
T2 sequence (O96935 whole entry): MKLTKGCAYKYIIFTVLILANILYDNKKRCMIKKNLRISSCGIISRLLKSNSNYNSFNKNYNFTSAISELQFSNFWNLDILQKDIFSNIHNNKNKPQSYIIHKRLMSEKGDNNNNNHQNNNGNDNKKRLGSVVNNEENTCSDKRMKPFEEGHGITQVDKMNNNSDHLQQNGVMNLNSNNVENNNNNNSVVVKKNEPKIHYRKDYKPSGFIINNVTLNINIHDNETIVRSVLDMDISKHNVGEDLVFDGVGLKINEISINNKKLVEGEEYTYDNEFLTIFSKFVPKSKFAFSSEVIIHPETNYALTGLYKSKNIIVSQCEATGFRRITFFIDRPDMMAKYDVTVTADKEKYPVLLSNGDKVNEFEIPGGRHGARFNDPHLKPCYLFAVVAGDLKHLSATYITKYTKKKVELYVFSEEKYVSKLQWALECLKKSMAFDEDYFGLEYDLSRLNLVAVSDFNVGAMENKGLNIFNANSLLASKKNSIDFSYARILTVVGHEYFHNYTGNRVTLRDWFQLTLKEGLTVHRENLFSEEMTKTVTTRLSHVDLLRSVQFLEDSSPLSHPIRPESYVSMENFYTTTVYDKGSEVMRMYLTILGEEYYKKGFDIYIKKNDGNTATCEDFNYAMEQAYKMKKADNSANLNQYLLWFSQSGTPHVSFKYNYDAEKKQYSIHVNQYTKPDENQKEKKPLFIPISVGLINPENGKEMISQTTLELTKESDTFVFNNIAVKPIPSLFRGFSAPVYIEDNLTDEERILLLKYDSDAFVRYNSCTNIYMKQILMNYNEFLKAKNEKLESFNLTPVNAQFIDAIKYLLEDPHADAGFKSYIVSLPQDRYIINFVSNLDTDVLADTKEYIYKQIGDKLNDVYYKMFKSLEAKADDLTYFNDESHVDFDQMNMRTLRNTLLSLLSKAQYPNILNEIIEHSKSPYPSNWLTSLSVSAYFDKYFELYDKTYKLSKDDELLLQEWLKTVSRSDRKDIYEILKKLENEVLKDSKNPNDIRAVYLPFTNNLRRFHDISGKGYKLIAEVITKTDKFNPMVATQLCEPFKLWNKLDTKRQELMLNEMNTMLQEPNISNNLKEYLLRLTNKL

[3] = molecular target: Transitional endoplasmic reticulum ATPase (Homo sapiens, UniProt P55072, C522A); experiment: C522A mutant p97 ATPase inhibitors, dose response, counter-screen for p97 inhibitor project, biochemical, luminescence (AID 1544)
Chain of Transitional endoplasmic reticulum ATPase (P55072 2-806 C522A limits assumed): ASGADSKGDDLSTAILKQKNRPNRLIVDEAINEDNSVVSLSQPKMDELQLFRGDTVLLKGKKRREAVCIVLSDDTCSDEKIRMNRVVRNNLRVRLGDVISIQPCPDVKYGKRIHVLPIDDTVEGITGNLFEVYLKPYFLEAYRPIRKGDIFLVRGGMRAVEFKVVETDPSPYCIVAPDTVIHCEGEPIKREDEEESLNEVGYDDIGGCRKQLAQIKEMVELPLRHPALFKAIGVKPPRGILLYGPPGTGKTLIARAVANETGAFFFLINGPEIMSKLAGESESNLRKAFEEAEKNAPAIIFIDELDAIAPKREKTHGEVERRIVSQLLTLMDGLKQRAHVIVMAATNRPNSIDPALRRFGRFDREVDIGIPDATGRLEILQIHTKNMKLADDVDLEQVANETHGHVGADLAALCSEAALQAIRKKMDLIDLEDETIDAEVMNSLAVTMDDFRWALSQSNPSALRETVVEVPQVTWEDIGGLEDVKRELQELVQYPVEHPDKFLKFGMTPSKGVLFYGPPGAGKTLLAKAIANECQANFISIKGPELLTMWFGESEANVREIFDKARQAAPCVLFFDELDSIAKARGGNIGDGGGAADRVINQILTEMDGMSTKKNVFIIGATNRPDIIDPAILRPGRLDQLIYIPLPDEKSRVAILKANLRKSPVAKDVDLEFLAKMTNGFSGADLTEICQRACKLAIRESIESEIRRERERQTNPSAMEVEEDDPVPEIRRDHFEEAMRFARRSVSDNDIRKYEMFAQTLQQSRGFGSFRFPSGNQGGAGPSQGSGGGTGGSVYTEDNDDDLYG

[4] = molecular target: Glutathione-S-transferase (Schistosoma japonicum, UniProt Q26513); experiment: biotin-GST/anti-GST TR-FRET signal inhibitors, dose response, artefact control for Vif-APOBEC3G degradation inhibitor project, biochemical (AID 1117362); assay type: functional
Chain of Glutathione-S-transferase (Q26513 whole entry): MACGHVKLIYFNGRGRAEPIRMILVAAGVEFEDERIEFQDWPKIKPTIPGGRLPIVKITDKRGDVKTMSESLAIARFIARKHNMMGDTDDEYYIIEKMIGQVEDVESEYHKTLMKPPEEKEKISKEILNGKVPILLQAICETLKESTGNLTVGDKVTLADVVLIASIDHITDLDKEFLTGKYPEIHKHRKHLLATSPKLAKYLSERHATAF

BJ [5] = experiment: cells; assay type: functional, cell-based; settings: Homo sapiens
BJ [6] = experiment: cytotoxicity toward Ras-transformed BJeLR fibroblasts, dose response, cell-based, alamar blue fluorescence, cherrypicked samples (AID 2631); assay type: functional; settings: Homo sapiens;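 also: confirmatory dose-response assay in RAS-dependent BJ fibroblasts engineered with TERT, LT and ST, with cytotoxicity read by fluorescence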

Chain of DNA damage-inducible transcript 3 protein (P35639 whole entry, the tested form may be a part): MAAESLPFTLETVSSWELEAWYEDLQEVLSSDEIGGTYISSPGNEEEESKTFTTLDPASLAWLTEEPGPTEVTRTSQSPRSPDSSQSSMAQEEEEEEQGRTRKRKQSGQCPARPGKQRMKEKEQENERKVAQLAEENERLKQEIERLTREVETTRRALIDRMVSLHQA

CCc1nnc(NS(=O)(=O)c2ccc(NC(=S)NC(=O)/C=C/c3ccc(C(C)C)cc3)cc2)s1
Absolute IC50 (CHOP) [1]: 10 µM

COc1ccc(S(=O)(=O)Nc2cc(SCC(=O)O)c(O)c3ccccc23)cc1
IC50 (Hexokinase-1): > 80 µM (inactive)
AC50 [2]: 126 µM (active)

CC1CC(=O)c2c(cc3c(-c4c(O)cc(O)c5c(O)c6c(cc45)OC(C)CC6=O)c(O)cc(O)c3c2O)O1 (stereo not drawn) [CEPHALOCHROMIN]
IC50 (Aminopeptidase N): 64.9 µM (active)
IC50 [3]: > 50 µM (not active)
IC50 [4]: > 100 µM (active)

O=C(/C=C/c1ccco1)Nc1ccc(Oc2ccccc2)cc1
EC50 (BJ [5]): 21.2 µM (active)
EC50 (BJ [6]): 14.6 µM (active)
